Patent US20260000642A1 (Tay Therapeutics Limited, priority 2022, published 2026)

Tested on: CXCL10
Assay: Human PBMC assay, CXCL10 by ELISA (IFN-γ stimulation)
Assay type: cell-based
Procedure: The impact of Examples 23, 80, and 101 on IL-17A, IL-22, and CXCL10 levels was analyzed in cryopreserved human peripheral blood mononuclear cells (PBMC) by ELISA.
For IL-17A and IL-22 assays, Examples 23, 80, and 101 were serially diluted from 10 mM in DMSO and further diluted in assay media to 100× the required final concentration, of which, 2 μL was added per well to a round-bottom 96-well tissue culture plate where the final DMSO concentration per well was 0.1%. CD2, CD3, and CD28 antibody-coated beads from the T-cell activation/expansion kit (Miltenyi Biotec) were added to the PBMC at a bead-to-cell ratio of 1:2. The mixture of PBMCs and beads were seeded into the wells of the round-bottom 96-well plate at a concentration of 2×10^5 cells/well in a total volume of 200 μL. The cells were cultured for 72 hours at 37° C. and 5% CO2 and then supernatants were collected and IL-17A and IL-22 levels were measured by ELISA. For the CXCL10 assay, Examples 23, 80, and 101 were serially diluted from 10 mM in DMSO and further diluted in assay media to 100× the required final concentration, of which 2 μL was added per well to a 96-well tissue culture plate. The final compound concentration ranged from 30,000 nM to 0.005 nM and the final DMSO concentration per well was 0.3%. PBMCs were seeded at approximately […] in the wells of the 96-well tissue culture plate in a total volume of 190 μL. The plate was incubated for 1 hour at 37° C. and 5% CO2. The cells were then stimulated with IFN-γ (15 ng/mL final concentration) in a volume of 10 μL. The cells were then cultured for 24 hours at 37° C. and 5% CO2. The supernatant was collected and CXCL10 levels were measured by ELISA.

With CNC(=O)c1[nH]c(C(=O)NC2CCC2)cc1O[C@@H](C)c1ccccc1 [Example 101, N^5-cyclobutyl-N^2-methyl-3-(1-phenylethoxy)-1H-pyrrole-2,5-dicarboxamide] as the compound, how does the “selectivity to induction of CXCL10 relative to IL-17A and IL-22” value read?
The value was “showed selectivity”.

What about the “IC50 for CXCL-10 relative to GSK620” value (IFN-γ, 24 hours, ELISA) of the same compound?
The value was “substantially lower 1050”.
